Measurements reported in US20180369118A1, “METHODS FOR SPORE REMOVAL” (3M INNOVATIVE PROPERTIES COMPANY, priority 2015, published 2018).

Test system: C.sporogenes spores ATCC 3584
Assay: In-vitro removal of spores from Vitro-Skin (finger bag collection method)
Settings: Example 4
Source text: The in-vitro method was designed to evaluate the removal of microbes from skin using a synthetic skin material from the cosmetic industry, Vitro-skin from IMS inc, Portland MeThis method enables rapid screening of formulations for their propensity to promote release of microbes from skin and may be predictive of in-vivo activity.
The following materials were utilized. C.sporogenes spores ATCC 3584˜1.0×10̂8 CFU/ml; Triton-X 100 sampling buffer (pH 7.4) Filter Sterilized: 0.4 g KH2PO4, 10.1 g Na2HPO4, 1 g Triton-X 100, and 1 L dH2O; D/E neutralizing broth; Fingers from disposable polyethylene gloves (VWR 32915-268); Sterile dH2O (WFI quality water); 3M AC Petrifilm; and 5 ml Falcon tubes; 1.5 ml EPI Centrifuge tubes; Petri Dishes; Vitro-Skin IMS Inc.; and double-sided tape.
The method included the following. Punched-out specified number of Vitro-Skin samples using the ¾″ punch. Attached punch-out Vitro-Skin samples to a Petri-dish or any other sterile flat surface using double-sided tape. Contaminated the Vitro-Skin samples accordingly with 10μl of spores/spore prep (˜1×10̂6 CFU/Sample). Used the pipette tip to spread spores over the surface and used a new pipette tip for each sample. Allowed the samples to dry (˜40 minutes). […]
For best statistical data each test solution was repeated 3 times. […] Counted plates and analyzed data.

N=C(NCCCCCCNC(=N)NC(=N)Nc1ccc(Cl)cc1)NC(=N)Nc1ccc(Cl)cc1.O=C(O)[C@H](O)[C@@H](O)[C@H](O)[C@H](O)CO.O=C(O)[C@H](O)[C@@H](O)[C@H](O)[C@H](O)CO [CHG, Chlorhexidine gluconate]
spore removal (in words): poor spore removal
